One may read the pIC50 as the IC50 on a negative log10 scale, so that one unit is a factor of ten.

The results in this text go back to patent US7642269B2, “Pyrrolo[3,2-B]pyridine derivatives and processes for the preparation thereof” (Yuhan Corporation, priority 2005, dated 2010).

pIC50: −log10 of the molar value. Where a name gives a salt, the structure may show the parent alone.

T1 sequence (P19156 2-1034 limits assumed): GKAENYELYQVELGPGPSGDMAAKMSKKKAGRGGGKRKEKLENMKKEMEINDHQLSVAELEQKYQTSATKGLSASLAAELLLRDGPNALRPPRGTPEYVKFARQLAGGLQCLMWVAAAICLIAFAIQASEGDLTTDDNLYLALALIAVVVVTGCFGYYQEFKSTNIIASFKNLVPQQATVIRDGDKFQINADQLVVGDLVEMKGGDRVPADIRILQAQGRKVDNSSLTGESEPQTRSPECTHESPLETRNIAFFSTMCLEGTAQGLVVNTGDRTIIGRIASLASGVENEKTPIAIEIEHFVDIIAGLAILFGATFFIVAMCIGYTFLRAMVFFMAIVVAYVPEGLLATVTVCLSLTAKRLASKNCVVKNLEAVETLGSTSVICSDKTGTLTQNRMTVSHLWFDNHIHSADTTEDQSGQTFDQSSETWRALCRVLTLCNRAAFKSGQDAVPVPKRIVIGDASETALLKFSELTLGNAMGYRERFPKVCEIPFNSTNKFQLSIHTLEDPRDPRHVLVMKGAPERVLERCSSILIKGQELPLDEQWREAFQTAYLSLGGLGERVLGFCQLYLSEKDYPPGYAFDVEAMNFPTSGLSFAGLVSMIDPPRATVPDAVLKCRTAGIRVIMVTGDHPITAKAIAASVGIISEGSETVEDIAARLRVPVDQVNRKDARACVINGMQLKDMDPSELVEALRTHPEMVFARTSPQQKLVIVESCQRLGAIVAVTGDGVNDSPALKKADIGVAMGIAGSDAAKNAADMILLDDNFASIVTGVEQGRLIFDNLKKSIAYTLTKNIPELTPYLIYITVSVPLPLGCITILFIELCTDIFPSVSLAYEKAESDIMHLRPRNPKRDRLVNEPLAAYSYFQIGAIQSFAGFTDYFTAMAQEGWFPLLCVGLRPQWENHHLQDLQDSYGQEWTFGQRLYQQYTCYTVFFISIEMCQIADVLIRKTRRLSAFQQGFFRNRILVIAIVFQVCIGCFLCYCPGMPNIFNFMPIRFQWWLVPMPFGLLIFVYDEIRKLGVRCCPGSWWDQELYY
T1 sequence (P18434 whole entry partner): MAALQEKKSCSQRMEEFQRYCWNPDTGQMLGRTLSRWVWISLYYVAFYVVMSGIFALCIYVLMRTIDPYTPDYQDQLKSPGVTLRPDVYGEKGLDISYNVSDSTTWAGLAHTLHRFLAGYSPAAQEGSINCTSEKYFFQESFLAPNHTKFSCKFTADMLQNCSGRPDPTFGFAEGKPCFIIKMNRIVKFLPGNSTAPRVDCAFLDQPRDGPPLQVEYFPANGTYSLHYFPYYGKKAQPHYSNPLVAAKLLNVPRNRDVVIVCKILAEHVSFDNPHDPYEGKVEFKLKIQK

This experiment has as its target T1, H^+/K^+-ATPase (Sus scrofa, UniProt P19156).
T1 construct: used as an enzyme source of the in vitro enzyme reaction assay of proton pump; from tissue; host or cells: hog gastric fundic mucosa (membrane vesicles, lyophilized)
As to the kind of experiment: Inhibitory effects on proton pump (H^+/K^+-ATPase) activity, hog gastric vesicles. In kind it is biochemical. The conditions noted are these: K^+ stimulated H^+/K^+-ATPase activity, hog gastric vesicle, Pi measured at 620 nm. As for the experimental part: Preparation of Gastric Proton Pump Vesicles
The hog fundic regions containing parietal and peptic cells were scraped with slide-glass. The collected cells were suspended in 10 ml of 0.25M sucrose buffer and homogenized using a tight-fitting Teflon-glass homogenizer. The homogenate was centrifuged for 35 min at 8,000 rpm and the pellet was discarded. The supernatant was further centrifuged for 75 min at 25,000 rpm. The resulting pellets were re-suspended in the sucrose buffer (10 ml), and then the suspension was laid onto discontinuous density gradients consisting of 0.25M sucrose buffer and isolation medium containing 9% Ficoll (w/w). After being centrifuged for 3 hours and 15 minutes at 100,000×g, the material at the interface of sucrose buffer and Ficoll solution was collected and then centrifuged for 40 minutes at 100,000×g. The resulting pellets were re-suspended in 1 ml of 5 mM Hepes/Tris buffer (pH 6.1). This material was lyophilized and stored at −70° C. and used as an enzyme source of the in vitro enzyme reaction assay of proton pump.
1-2. Measurement of Inhibitory Effects on Proton Pump (H+/K+-ATPase) activity
The inhibitory effects of the compounds of the present invention against proton pump activity were evaluated in 96-well plate. In this assay, the K^+ specific H^+/K^+-ATPase activity was calculated based on the difference between the activity of H^+/K^+-ATPase activity with K^+ and without K^+ ion. In 96-well plate, 1% dimethylsulfoxide (DMSO) in buffer was added to negative and positive control groups and the diluted compounds of the present invention in buffer were added to test group. All assays were performed in 100 μl reaction volume at room temperature, and the hog gastric vesicle was kept in ice before use. At the beginning of the reaction, 10 μl of reaction buffer containing 1% DMSO was added to the negative and positive control groups and to each concentration of compounds in the test group. Then lyophilized vesicle in 5 mM Pipes/Tris buffer (pH 6.1) was pre-incubated in the presence of various concentrations of test compounds. After a 5 minute incubation, negative and positive buffers were respectively added to the previous reaction mixture. As the substrate, ATP was added to the reaction buffer, and incubated for 30 minutes at 37° C. Enzymatic activity was stopped by the addition of colorimetric reagent (2× malachite green, 1× ammonium molybdate, 1× polyvinyl alcohol, 2× H2O) and the amount of mono phosphate (Pi) in the reaction was measured at 620 nm using the micro plate reader (Genios Pro, TECAN). The difference between the Pi production with K^+ and without K^+ is taken as K^+ stimulated H^+/K^+-ATPase activity.
For `CC(=O)OCCn1c(C)c(C)c2nccc(OCc3ccc(Cl)cc3)c21` [Example 85, 1-(2-acetoxyethyl)-7-(4-chlorobenzyloxy)-2,3-dimethyl-1H-pyrrolo[3,2-b]pyridine hydrochloride], the pIC50 was 6.77.
Consider `Cc1c(C)n(CC2OCCO2)c2c(OCc3ccc(Cl)cc3)ccnc12` [Example 87, 7-(4-chlorobenzyloxy)-1-(1,3-dioxolan-2-ylmethyl)-2,3-dimethyl-1H-pyrrolo[3,2-b]pyridine hydrochloride], for which the pIC50 is 6.80.
With `Cc1c(C)n(Cc2ccc(Cl)cc2)c2c(OCc3ccc(Cl)cc3)ccnc12` [Example 88, 7-(4-chlorobenzyloxy)-1-(4-chlorobenzyl)-2,3-dimethyl-1H-pyrrolo[3,2-b]pyridine hydrochloride], the pIC50 is 6.17.
The figure for `Cc1c(C)n(Cc2ccccc2F)c2c(OCc3ccc(Cl)cc3)ccnc12` [Example 89, 7-(4-chlorobenzyloxy)-1-(2-fluorobenzyl)-2,3-dimethyl-1H-pyrrolo[3,2-b]pyridine hydrochloride] is 6.47; for `CCn1c(C)c(C)c2nccc(OCc3ccc(Cl)cc3)c21` [Example 90, 7-(4-chlorobenzyloxy)-1-ethyl-2,3-dimethyl-1H-pyrrolo[3,2-b]pyridine hydrochloride] it is 6.85.
`Cc1c(C)n(Cc2ccc(F)cc2)c2c(OCc3ccc(Cl)cc3)ccnc12` [Example 91, 7-(4-chlorobenzyloxy)-1-(4-fluorobenzyl)-2,3-dimethyl-1H-pyrrolo[3,2-b]pyridine hydrochloride] had a pIC50 of 6.34.
The figure for `COc1cccc(Cn2c(C)c(C)c3nccc(OCc4ccc(Cl)cc4)c32)c1` [Example 92, 7-(4-chlorobenzyloxy)-1-(3-methoxybenzyl)-2,3-dimethyl-1H-pyrrolo[3,2-b]pyridine hydrochloride] is 7.30; for `Cc1c(C)n(Cc2cccc(F)c2)c2c(OCc3ccc(Cl)cc3)ccnc12` [Example 93, 7-(4-chlorobenzyloxy)-1-(3-fluorobenzyl)-2,3-dimethyl-1H-pyrrolo[3,2-b]pyridine hydrochloride] it is 7.30; for `Cc1cccc(Cn2c(C)c(C)c3nccc(OCc4ccc(Cl)cc4)c32)c1` [Example 95, 7-(4-chlorobenzyloxy)-1-(3-methylbenzyl)-2,3-dimethyl-1H-pyrrolo[3,2-b]pyridine hydrochloride] it is 6.28.
Turning to `Cc1ccc(Cn2c(C)c(C)c3nccc(OCc4ccc(Cl)cc4)c32)cc1` [Example 96, 7-(4-chlorobenzyloxy)-1-(4-methylbenzyl)-2,3-dimethyl-1H-pyrrolo[3,2-b]pyridine hydrochloride], the pIC50 was 6.89.
The figure for `C=CCn1c(C)c(C)c2nccc(OCc3ccc4c(c3)OCO4)c21` [Example 98, 1-allyl-7-(benzo[1,3]dioxol-5-ylmethoxy)-2,3-dimethyl-1H-pyrrolo[3,2-b]pyridine hydrochloride] is 6.21.
The figure for `COCCn1c(C)c(C)c2nccc(OCc3ccc4c(c3)OCO4)c21` [Example 99, 7-(benzo[1,3]dioxol-5-ylmethoxy)-1-(2-methoxyethyl)-2,3-dimethyl-1H-pyrrolo[3,2-b]pyridine hydrochloride] is 6.20; for `Cc1c(C)n(CC2OCCO2)c2c(OCc3ccc4c(c3)OCO4)ccnc12` [Example 100, 7-(benzo[1,3]dioxol-5-ylmethoxy)-1-([1,3]-dioxolan-2-ylmethyl)-2,3-dimethyl-1H-pyrrolo[3,2-b]pyridine hydrochloride] it is 5.55.
The figure for `Cc1c(C)n(Cc2ccccc2F)c2c(OCc3ccc4c(c3)OCO4)ccnc12` [Example 101, 7-(benzo[1,3]dioxol-5-ylmethoxy)-1-(2-fluorobenzyl)-2,3-dimethyl-1H-pyrrolo[3,2-b]pyridine hydrochloride] is 6.00.
As for `Cc1cccc(Cn2c(C)c(C)c3nccc(OCc4ccc5c(c4)OCO5)c32)c1` [Example 113, 7-(benzo[1,3]dioxol-5-ylmethoxy)-2,3-dimethyl-1-(3-methylbenzyl)-1H-pyrrolo[3,2-b]pyridine hydrochloride], the pIC50 is 5.85.
In the case of `Cc1ccc(Cn2c(C)c(C)c3nccc(OCc4ccc5c(c4)OCO5)c32)cc1` [Example 114, 7-(benzo[1,3]dioxol-5-ylmethoxy)-1-(4-methylbenzyl)-2,3-dimethyl-1H-pyrrolo[3,2-b]pyridine hydrochloride], the pIC50 was 7.15.
The figure for `Cc1c(C)n(Cc2ccccc2)c2c(OCc3ccc4c(c3)OCO4)ccnc12` [Example 115, 7-(benzo[1,3]dioxol-5-ylmethoxy)-1-benzyl-2,3-dimethyl-1H-pyrrolo[3,2-b]pyridine hydrochloride] is 6.89; for `Cc1c(C)n(Cc2cccc(F)c2)c2c(OCc3ccc4c(c3)OCO4)ccnc12` [Example 116, 7-(benzo[1,3]dioxol-5-ylmethoxy)-1-(3-fluorobenzyl)-2,3-dimethyl-1H-pyrrolo[3,2-b]pyridine hydrochloride] it is 6.82; for `CCn1c(C)c(C)c2nccc(OCc3ccc4c(c3)OCO4)c21` [Example 117, 7-(benzo[1,3]dioxol-5-ylmethoxy)-1-ethyl-2,3-dimethyl-1H-pyrrolo[3,2-b]pyridine hydrochloride] it is 6.14.
Consider `Cc1c(C)n(Cc2ccc(F)cc2)c2c(OCc3ccc4c(c3)OCO4)ccnc12` [Example 118, 7-(benzo[1,3]dioxol-5-ylmethoxy)-1-(4-fluorobenzyl)-2,3-dimethyl-1H-pyrrolo[3,2-b]pyridine hydrochloride], for which the pIC50 was 6.34.
The figure for `COc1cccc(Cn2c(C)c(C)c3nccc(OCc4ccc5c(c4)OCO5)c32)c1` [Example 119, 7-(benzo[1,3]dioxol-5-ylmethoxy)-1-(3-methoxybenzyl)-2,3-dimethyl-1H-pyrrolo[3,2-b]pyridine hydrochloride] is 6.64.
`Cc1c(C)n(CC(C)C)c2c(OCc3ccc4c(c3)OCO4)ccnc12` [Example 120, 7-(benzo[1,3]dioxol-5-ylmethoxy)-1-isobutyl-2,3-dimethyl-1H-pyrrolo[3,2-b]pyridine hydrochloride] had a pIC50 of 6.92.
The figure for `Cc1c(C)n(CC2CC2)c2c(OCc3ccc4c(c3)OCO4)ccnc12` [Example 121, 7-(benzo[1,3]dioxol-5-ylmethoxy)-1-cyclopropylmethyl-2,3-dimethyl-1H-pyrrolo[3,2-b]pyridine hydrochloride] is 6.49; for `COCCn1c(C)c(C)c2nccc(OCc3ccc(F)cc3)c21` [Example 122, 7-(4-fluorobenzyloxy)-1-(2-methoxyethyl)-2,3-dimethyl-1H-pyrrolo[3,2-b]pyridine] it is 7.70.
The figure for `COCCn1c(C)c(C)c2nccc(OCc3ccc(F)cc3)c21` [Example 123, 7-(4-fluorobenzyloxy)-1-(2-methoxyethyl)-2,3-dimethyl-1H-pyrrolo[3,2-b]pyridine methanesulfonate] is 7.22.
The figure for `COCCn1c(C)c(C)c2nccc(OCc3ccc(F)cc3)c21` [Example 124, 7-(4-fluorobenzyloxy)-1-(2-methoxyethyl)-2,3-dimethyl-1H-pyrrolo[3,2-b]pyridine benzenesulfonate] is 7.30.
Compound `COCCn1c(C)c(C)c2nccc(OCc3ccc(F)cc3)c21` [Example 125, 7-(4-fluorobenzyloxy)-1-(2-methoxyethyl)-2,3-dimethyl-1H-pyrrolo[3,2-b]pyridine p-toluenesulfonate] had a negative-log IC50 (pIC50) of 7.30.
